Data on 43 compounds can be found in ChEMBL document CHEMBL2311283, “Structural modifications to tetrahydropyridine-3-carboxylate esters en route to the discovery of M5-preferring muscarinic receptor orthosteric antagonists” (J Med Chem, 2013).

Test [1] addresses T1, Muscarinic acetylcholine receptor M5 (Homo sapiens, UniProt P08912).
T1 sequence (P08912 whole entry): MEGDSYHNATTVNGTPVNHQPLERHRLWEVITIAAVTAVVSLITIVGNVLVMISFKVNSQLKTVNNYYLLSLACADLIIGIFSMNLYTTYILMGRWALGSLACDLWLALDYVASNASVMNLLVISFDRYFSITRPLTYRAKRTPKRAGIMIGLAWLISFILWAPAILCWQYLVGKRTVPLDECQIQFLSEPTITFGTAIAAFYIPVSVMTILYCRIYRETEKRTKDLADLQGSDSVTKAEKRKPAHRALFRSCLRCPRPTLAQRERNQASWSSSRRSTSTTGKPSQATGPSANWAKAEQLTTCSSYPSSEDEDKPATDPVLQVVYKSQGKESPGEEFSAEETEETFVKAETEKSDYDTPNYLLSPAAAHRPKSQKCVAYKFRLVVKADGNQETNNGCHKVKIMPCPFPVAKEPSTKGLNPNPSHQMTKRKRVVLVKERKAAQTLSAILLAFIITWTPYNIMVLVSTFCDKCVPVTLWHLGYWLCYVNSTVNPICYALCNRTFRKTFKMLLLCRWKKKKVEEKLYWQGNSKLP
In words: Displacement of [3H]NMS from human M5 muscarinic receptor expressed in CHO-K1 cells. Type of test: cell-based. (Loss of bound radioactivity is the signal in a displacement assay; it reports binding, not function.)

In test [2] the target is T2, Muscarinic acetylcholine receptor M1 (Homo sapiens, UniProt P11229).
T2 sequence (P11229 whole entry): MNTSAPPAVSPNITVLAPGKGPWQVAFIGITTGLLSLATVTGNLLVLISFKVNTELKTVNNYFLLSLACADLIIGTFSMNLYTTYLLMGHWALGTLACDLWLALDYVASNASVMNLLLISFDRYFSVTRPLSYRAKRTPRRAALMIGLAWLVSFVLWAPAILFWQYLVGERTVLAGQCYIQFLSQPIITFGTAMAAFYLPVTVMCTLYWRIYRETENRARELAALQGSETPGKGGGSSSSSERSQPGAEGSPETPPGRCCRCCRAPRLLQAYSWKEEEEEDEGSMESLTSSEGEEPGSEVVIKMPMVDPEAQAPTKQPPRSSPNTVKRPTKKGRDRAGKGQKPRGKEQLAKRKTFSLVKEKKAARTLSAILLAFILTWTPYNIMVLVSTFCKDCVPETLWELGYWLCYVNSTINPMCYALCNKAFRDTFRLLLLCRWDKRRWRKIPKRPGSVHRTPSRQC
In words: biochemical. It counts as cell-based, CHO-K1.

Test [3] is filed under the species Homo sapiens. The test is described as follows: Selectivity index, ratio of Ki for human M1 muscarinic receptor to Ki for human M5 muscarinic receptor.

The Ki is the dissociation constant of the complex between target and ligand, obtained from inhibition or displacement. A low value points to higher affinity. With `CCN1CCC(c2ccccc2)=C(C(=O)OCCc2ccc(S(C)(=O)=O)cc2)C1`, the results for the inhibition constant (Ki) in test [1] and in test [2] were above 100000 nM and above 100 µM, respectively.
As for `CN1CCC(C(=O)OCCc2ccc3c(c2)CCO3)=C(c2ccccc2)C1`, the Ki was found to be 1140 nM in test [1] and 0.21 µM in test [2].
For `CCOC(=O)C1=C(c2ccccc2)CCN(CCc2ccccc2)C1`, in that order: above 100000 nM and above 100 µM.
Take `CCN1CCC(c2ccccc2)=C(C(=O)OCCc2cccc(OC)c2)C1`: the Ratio Ki in test [3] stood at 3.1. Also, the Ki was 150 nM in test [1] and 0.47 µM in test [2].
For `CN1CCC(c2ccccc2)=C(C(=O)OCCc2ccc(S(C)(=O)=O)cc2)C1`, in that order: 4.6, 110 nM and 0.51 µM.
`CN1CCC(c2cccc(F)c2)=C(C(=O)OCCc2ccc3c(c2)CCO3)C1`: the Ki in test [1] was above 100000 nM; in test [2], above 100 µM.
Regarding `COc1ccc(OCCOC(=O)C2=C(c3ccccc3)CCN(C)C2)cc1`, in test [3], the Ratio Ki worked out at 2. The Ki came out at 3070 nM in test [1] and 6.19 µM in test [2].
As for `CCCN1CCC(c2ccccc2)=C(C(=O)OCCc2ccc(OC)cc2)C1`, the Ki in test [1] was above 100000 nM; in test [2] it was above 100 µM.
As to `CCOC(=O)C1=C(c2ccccc2)CCN(CCc2ccc3c(c2)OCO3)C1`, the Ki is above 100000 nM in test [1] and above 100 µM in test [2].
The like results for `COc1ccc(CCOC(=O)C2=C(c3ccccc3F)CCN(C)C2)cc1OC` were, in that order, above 100000 nM and above 100 µM.
For `CCOC(=O)C1=C(c2ccccc2)CCN(C2CCN(S(=O)(=O)c3ccc(C)cc3)CC2)C1`, in that order: above 100000 nM and above 100 µM.
Regarding `COc1ccc(CCOC(=O)C2=C(c3ccccc3)CCN(C)C2)cc1C`, the Ratio Ki in test [3] turned out to be 3.6. In addition, the Ki in test [1] turned out to be 740 nM; in test [2], 2.7 µM.
Take `Cc1cccc(CCOC(=O)C2=C(c3ccccc3)CCN(C)C2)c1`: the Ratio Ki in test [3] amounted to 3.1. The Ki in test [1] stood at 280 nM; in test [2], 0.88 µM.
For `CCN1CCC(c2ccccc2)=C(C(=O)OCCc2ccc(OC)c(F)c2)C1`, in that order: 4.8, 2460 nM and 11.7 µM.
`CCCCN1CCC(c2ccccc2)=C(C(=O)OCCc2ccc(OC)cc2)C1`: the Ki in test [1] was above 100000 nM; in test [2], above 100 µM.
In the case of `CCN1CCC(c2ccccc2)=C(C(=O)OCc2ccc3c(c2)OCO3)C1`, the Ratio Ki in test [3] worked out at 0.5. Besides, the Ki came out at 120 nM in test [1] and 0.06 µM in test [2].
With `CCN1CCC(c2ccccc2)=C(C(=O)OCc2ccc(OC)cc2)C1`, the Ratio Ki in test [3] is 0.8. Moreover, the figures for the Ki in test [1] and in test [2] were 3610 nM and 3.06 µM, respectively.
Take `CCCN1CCC(c2ccccc2)=C(C(=O)OCCc2ccc3c(c2)CCO3)C1`: the Ki in test [1] was above 100000 nM; in test [2] it was above 100 µM.
As to `CN1CCC(c2ccccc2)=C(C(=O)OCCc2cccc(F)c2)C1`, the Ratio Ki in test [3] was determined as 4.1. Moreover, the Ki came to 80 nM in test [1] and 0.33 µM in test [2].
As for `COc1ccc(CCOC(=O)C2=C(c3ccccc3OC)CCN(C)C2)cc1OC`, the Ki in test [1] is above 100000 nM; in test [2], above 100 µM.
For `COc1cccc(C2=C(C(=O)OCCc3ccc(OC)c(OC)c3)CN(C)CC2)c1`, the Ki in test [1] is above 100000 nM; in test [2], above 100 µM.
For `CCN1CCC(c2ccccc2)=C(C(=O)OCCc2cc(OC)c(OC)c(OC)c2)C1`, the figures for the Ki in test [1] and in test [2] were above 100000 nM and above 100 µM, respectively.
For `CCN1CCC(c2ccccc2)=C(C(=O)O[C@@H](C)Cc2ccc(OC)cc2)C1`, in that order: above 100000 nM and above 100 µM.
On to `COc1ccc(CCOC(=O)C2=C(c3ccccc3)CCN(C)C2)cc1`, for which, in test [3], the Ratio Ki came to 0.7. The figures for the Ki in test [1] and in test [2] were 30 nM and 0.02 µM, respectively.
Consider `COC(COC(=O)C1=C(c2ccccc2)CCN(C)C1)c1ccccc1` (stereo not given), for which the figures for the Ki in test [1] and in test [2] were above 100000 nM and above 100 µM, respectively.
For `CCOC(=O)C1=C(c2ccccc2)CCN(CCc2ccc3c(c2)CCO3)C1`, in that order: above 100000 nM and above 100 µM.
`COc1ccc(CCOC(=O)C2=C(c3ccccc3)CCN(Cc3ccc(OC)cc3)C2)cc1`: the figures for the Ki in test [1] and in test [2] were above 100000 nM and above 100 µM, respectively.
As for `CCN1CCC(c2ccccc2)=C(C(=O)OCCc2ccsc2)C1`, the Ratio Ki in test [3] stood at 0.7. In addition, the Ki was found to be 190 nM in test [1] and 0.14 µM in test [2].
For `COc1ccc(CCCCOC(=O)C2=C(c3ccccc3)CCN(C)C2)cc1`, the Ratio Ki in test [3] came out at 4.7. Also, the Ki in test [1] came to 1160 nM; in test [2], 5.4 µM.
For `COc1ccccc1C1=C(C(=O)OCCc2ccc3c(c2)CCO3)CN(C)CC1`, in that order: 3.5, 2410 nM and 8.35 µM.
As for `CCOC(=O)C1=C(c2ccccc2)CCN(CCc2ccc(OC)cc2)C1`, the figures for the Ki in test [1] and in test [2] were above 100000 nM and above 100 µM, respectively.
`CCN1CCC(c2ccccc2)=C(C(=O)OCCc2ccc3c(c2)OCO3)C1`: in test [3], the Ratio Ki was determined as 0.7. The Ki in test [1] came to 280 nM; in test [2], 0.2 µM.
For the compound `CCOC(=O)C1=C(c2ccccc2)CCN(C2CCN(C(=O)c3c(C)cccc3C)CC2)C1`, the Ki in test [1] was above 100000 nM; in test [2], above 100 µM.
Take `CN1CCC(c2ccccc2)=C(C(=O)OCCCc2ccc3c(c2)CCO3)C1`: the Ratio Ki in test [3] came to 1.5. The Ki came to 630 nM in test [1] and 0.92 µM in test [2].
Regarding `CCCCN1CCC(c2ccccc2)=C(C(=O)OCCc2ccc3c(c2)CCO3)C1`, the Ki was above 100000 nM in test [1] and above 100 µM in test [2].
`CCN1CCC(c2ccccc2)=C(C(=O)OCCc2ccc([N+](=O)[O-])cc2)C1`: the Ratio Ki in test [3] stood at 1.8. The Ki in test [1] worked out at 440 nM; in test [2] it was 0.81 µM.
For the compound `CN1CC=C(c2ccccc2C(=O)OCCc2ccc3c(c2)CCO3)CC1`, the Ki in test [1] is above 100000 nM; in test [2], above 100 µM.
Consider `COc1ccc(CCOC(=O)C2=C(c3ccccc3)CN(C)CC2)cc1OC`, for which the Ki came to 2620 nM in test [1] and 6.16 µM in test [2].
For `CCOC(=O)C1=C(c2ccccc2)CCN(C2CCN(C(=O)c3c(Cl)cccc3Cl)CC2)C1`, in that order: above 100000 nM and above 100 µM.
For `CN1CCC(c2ccccc2)=C(C(=O)OCc2ccc3c(c2)CCO3)C1`, in that order: above 100000 nM and above 100 µM.
For the compound `COc1cccc(C2=C(C(=O)OCCc3ccc4c(c3)CCO4)CN(C)CC2)c1`, the Ratio Ki in test [3] came out at 0.9. Further, the results for the Ki in test [1] and in test [2] were 2680 nM and 2.43 µM, respectively.
As to `CSc1ccc(CCOC(=O)C2=C(c3ccccc3)CCN(C)C2)cc1`, the Ratio Ki in test [3] stood at 1.8. Moreover, the Ki in test [1] is 190 nM; in test [2], 0.34 µM.
The like results for `CCN1CCC(c2ccc(F)cc2)=C(C(=O)OCCc2ccc3c(c2)CCO3)C1` were, in that order, 3.4, 2350 nM and 7.9 µM.
